Experimental data as given in patent US20260265246A1 (ICAHN SCHOOL OF MEDICINE AT MOUNT SINAI, priority 2021, published 2026).
Where two headings read alike, the source gives them in different places.

Columns and labels:
5HT2A receptor [1] = target: T1, 5HT2A receptor (Homo sapiens, UniProt P28223); assay: cell-based; parameters: expressed in transfected cells; host or cells: HEK293T cells, transient co-transfection; conditions: for Emax: HEK-293T
5HT2A receptor [2] = target: T1, 5HT2A receptor; assay: cell-based; parameters: expressed in transfected cells; host or cells: HEK293T cells, transient co-transfection; conditions: for Emax: HEK-293T; remark: listed apart in the source
5HT2A receptor [3] = target: T1, 5HT2A receptor; assay: biochemical; format: binding; parameters: expressed in transfected cells; crude membranes
[4] = 5HTA Gq EC50 (nM), BRET2 Gαq dissociation, HEK293T
[5] = BRET2 Gαq dissociation, HEK293T, normalized to 5-HT, read-out: 5HTA Gq Emax (%)
[6] = 5HT2A β-Arr EC50 (nM), BRET1 beta-arrestin2 recruitment, HEK293T
[7] = BRET1 beta-arrestin2 recruitment, HEK293T, normalized to 5-HT, read-out: 5HT2A β-Arr Emax (%)
[8] = 5HT2A Ki (nM), secondary binding assay, Cheng-Prusoff
[9] = BRET2 Gαq dissociation, HEK293T cells, normalized to 5-HT, read-out: 5HT2A Gq Emax (%)
[10] = 5HT2A β-Arr EC50 (nM), BRET1 beta-arrestin2 recruitment, HEK293T cells
[11] = BRET1 beta-arrestin2 recruitment, HEK293T cells, normalized to 5-HT, read-out: 5HT2A β-Arr Emax (%)
[12] = 5HT2A Ki (nM), secondary radioligand binding, Ki from IC50 by Cheng-Prusoff
[13] = 5HT2A Gq EC50 (nM), BRET2 Gαq dissociation, HEK293T cells
[14] = BRET2 Gαq dissociation, HEK293T, read-out: 5HTA Gq EC50
[15] = BRET1 beta-arrestin2 recruitment, HEK293T, read-out: 5HT2A β-Arr EC50
[16] = BRET2 Gαq dissociation, HEK293T cells, read-out: 5HT2A Gq EC50

T1 sequence (P28223 whole entry): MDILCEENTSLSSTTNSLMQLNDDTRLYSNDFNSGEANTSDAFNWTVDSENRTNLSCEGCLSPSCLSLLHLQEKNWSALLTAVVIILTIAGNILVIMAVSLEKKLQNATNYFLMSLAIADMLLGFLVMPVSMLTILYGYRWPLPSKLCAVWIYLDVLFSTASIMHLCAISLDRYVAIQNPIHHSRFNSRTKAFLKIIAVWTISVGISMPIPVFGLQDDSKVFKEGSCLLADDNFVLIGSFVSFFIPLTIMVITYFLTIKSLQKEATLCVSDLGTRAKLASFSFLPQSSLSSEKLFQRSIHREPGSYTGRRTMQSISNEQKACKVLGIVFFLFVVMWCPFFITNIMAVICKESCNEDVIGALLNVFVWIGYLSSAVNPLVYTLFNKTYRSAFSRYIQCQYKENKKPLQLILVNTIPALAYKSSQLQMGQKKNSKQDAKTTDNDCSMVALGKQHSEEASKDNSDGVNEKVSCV

Compound	EC50 (5HT2A receptor [1]; [4]) [nM]	Emax (5HT2A receptor [1]; [5]) [%]	EC50 (5HT2A receptor [2]; [6]) [nM]	Emax (5HT2A receptor [2]; [7]) [%]	Ki (5HT2A receptor [3]; [8]) [nM]	Emax (5HT2A receptor [1]; [9]) [%]	EC50 (5HT2A receptor [2]; [10]) [nM]	Emax (5HT2A receptor [2]; [11]) [%]	Ki (5HT2A receptor [3]; [12]) [nM]	also measured
CCc1cccc2c(C3=CCCN(C4CC4)C3)n[nH]c12 [Example 238, 3-(1-cyclopropyl-1,2,5,6-tetrahydropyridin-3-yl)-7-ethyl-1H-indazole]	101	42.2	1020	50	634	–	–	–	–	–
Cc1cccc2c(C3CN(C)C3)c[nH]c12 [Example 261, 7-methyl-3-(1-methylazetidin-3-yl)-1H-indole]	196	69.3	1650	26.1	1680	–	–	–	–	–
Cc1cccc2c(C34CCNCC3C4)n[nH]c12 (centres unmarked) [Example 226, 3-(3-azabicyclo[4.1.0]heptan-6-yl)-7-methyl-1H-indazole]	1350	91	2000	52.1	4630	–	–	–	–	–
C1=C(c2n[nH]c3ccccc23)CNCC1 [Example 45, 3-(1,2,5,6-tetrahydropyridin-3-yl)-1H-indazole]	–	–	–	–	–	98.3	138	68.1	113	–
N#Cc1cccc2c(C34CNCCC3C4)n[nH]c12 (centres unmarked) [Example 195, 3-(3-azabicyclo[4.1.0]heptan-1-yl)-1H-indazole-7-carbonitrile]	1090	77.4	1040	21.7	> 10000	–	–	–	–	–
Clc1cccc2c(-c3cncnc3)n[nH]c12 [Example 216, 7-chloro-3-(pyrimidin-5-yl)-1H-indazole]	27.5	85.1	729	53.8	4390	–	–	–	–	–
CN1CCC=C(c2c[nH]c3ncc(-c4ccccc4)cc23)C1 [Example 8, 3-(1-methyl-1,2,5,6-tetrahydropyridin-3-yl)-5-phenyl-1H-pyrrolo[2,3-b]pyridine]	–	–	–	–	–	95.5	811	58.3	156	EC50 (5HT2A receptor [1]; [13]): 67 nM
Cc1ccc2c(C3=CCCNC3)n[nH]c2c1 [Example 76, 6-methyl-3-(1,2,5,6-tetrahydropyridin-3-yl)-1H-indazole]	–	–	–	–	–	93.6	1500	88.7	2460	EC50 (5HT2A receptor [1]; [13]): 118 nM
CCCN1CC=C(c2n[nH]c3c(Cl)cccc23)C1 [Example 213, 7-chloro-3-(1-propyl-2,5-dihydro-1H-pyrrol-3-yl)-1H-indazole]	–	61.3	211	31.5	1770	–	–	–	–	EC50 (5HT2A receptor [1]; [14]): 72.7 nM
Clc1ccc2c(C3=CCCNC3)c[nH]c2c1 [Example 31, 6-chloro-3-(1,2,5,6-tetrahydropyridin-3-yl)-1H-indole]	–	–	–	–	–	93	1500	112	160	EC50 (5HT2A receptor [1]; [13]): 106 nM
CN1CCC=C(c2n[nH]c3c(Cl)ccc(F)c23)C1 [Example 132, 7-chloro-4-fluoro-3-(1-methyl-1,2,5,6-tetrahydropyridin-3-yl)-1H-indazole]	–	95.4	–	50.9	–	–	–	–	–	EC50 (5HT2A receptor [1]; [14]): 24 nM; EC50 (5HT2A receptor [2]; [15]): 93 nM; Ki (5HT2A receptor [3]; secondary binding assay, Cheng-Prusoff, read-out: 5HT2A Ki): 84.6 nM
C1=C(c2c[nH]c3cccnc23)CNCC1 [Example 138, 3-(1,2,5,6-tetrahydropyridin-3-yl)-1H-pyrrolo[3,2-b]pyridine]	118	79	1420	101	147	–	–	–	–	–
Cc1ccnc2[nH]cc(C3=CCCN(C)C3)c12 [Example 13, 4-methyl-3-(1-methyl-1,2,5,6-tetrahydropyridin-3-yl)-1H-pyrrolo[2,3-b]pyridine]	–	–	–	–	–	68.7	–	38.9	–	EC50 (5HT2A receptor [1]; [16]): 106 nM; EC50 (5HT2A receptor [2]; BRET1 beta-arrestin2 recruitment, HEK293T cells, read-out: 5HT2A β-Arr EC50): 765 nM; Ki (5HT2A receptor [3]; secondary radioligand binding, Ki from IC50 by Cheng-Prusoff, read-out: 5HT2A Ki): 63.5 nM
Clc1cnc2[nH]cc(C3=CCCNC3)c2c1 [Example 3, 5-chloro-3-(1,2,5,6-tetrahydropyridin-3-yl)-1H-pyrrolo[2,3-b]pyridine]	–	–	–	–	–	82	229	43.8	143	EC50 (5HT2A receptor [1]; [13]): 29.4 nM
COc1ccc2[nH]nc(C3=CCCN(C)C3)c2c1 [Example 104, 5-methoxy-3-(1-methyl-1,2,5,6-tetrahydropyridin-3-yl)-1H-indazole]	–	–	–	–	–	88.2	681	83.7	501	EC50 (5HT2A receptor [1]; [16]): 82.8 nM
Clc1cccc2c(C34CNCC3C4)n[nH]c12 (single isomer, unassigned) [Example 274, 3-(3-azabicyclo[3.1.0]hexan-1-yl)-7-chloro-1H-indazole]	–	–	733	–	1580	–	–	–	–	5HTA Gq Emax (%) (5HT2A receptor [1]; BRET2 Gαq dissociation, HEK293T, normalized to 5-HT): 117.2%; EC50 (5HT2A receptor [1]; [14]): 61.5 nM; 5HT2A β-Arr Emax (%) (5HT2A receptor [2]; BRET1 beta-arrestin2 recruitment, HEK293T, normalized to 5-HT): 50.96%
Fc1cc(Cl)c2[nH]cc(C34CNCC3C4)c2c1 (centres unmarked) [Example 279, 3-(3-azabicyclo[3.1.0]hexan-1-yl)-7-chloro-5-fluoro-1H-indole]	110	–	380	–	75.2	–	–	–	–	Emax (5HT2A receptor [1]; read-out: 5HTA Gq Emax (%), BRET2 Gαq dissociation, HEK293T, normalized to 5-HT): 98.6%; Emax (5HT2A receptor [2]; read-out: 5HT2A β-Arr Emax (%), BRET1 beta-arrestin2 recruitment, HEK293T, normalized to 5-HT): 60.9%
CN1CCC=C(c2c[nH]c3ncc(F)cc23)C1 [Example 118, 5-fluoro-3-(1-methyl-1,2,5,6-tetrahydropyridin-3-yl)-1H-pyrrolo[2,3-b]pyridine]	–	–	–	–	–	109	49.4	56.7	80.3	EC50 (5HT2A receptor [1]; [13]): 31.6 nM
COc1cccc2[nH]nc(C3=CCCN(C)C3)c12 [Example 100, 4-methoxy-3-(1-methyl-1,2,5,6-tetrahydropyridin-3-yl)-1H-indazole]	–	–	–	–	–	63.9	460	52.4	349	EC50 (5HT2A receptor [1]; [16]): 91.6 nM
CCCN1CCC=C(c2c[nH]c3c(F)cccc23)C1 [Example 156, 7-fluoro-3-(1-propyl-1,2,5,6-tetrahydropyridin-3-yl)-1H-indole]	–	103	–	58.4	164	–	–	–	–	EC50 (5HT2A receptor [1]; [14]): 20.2 nM; EC50 (5HT2A receptor [2]; [15]): 61.2 nM
CCCN1CCC=C(c2c[nH]c3c(C)c(F)ccc23)C1 [Example 162, 6-fluoro-7-methyl-3-(1-propyl-1,2,5,6-tetrahydropyridin-3-yl)-1H-indole]	260	80.6	303	23.4	1140	–	–	–	–	–
